Experimental findings from patent US8507472B2 (priority 2010, dated 2013) are described below.

Usually inhibition stands for the share of the control response that was lost under treatment. By chromatographic logP is commonly meant a lipophilicity value derived from retention on a column. High values mean higher lipophilicity, low ones lower lipophilicity.

Data set [1] deals with Pyricularia oryzae. The following applies: in vivo.
Data set [2] deals with Sphaerotheca fuliginea. The data set is described as follows: Sphaerotheca test (cucumber)/protective. The data set is classed as in vivo. The essentials: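 Protective test: young cucumber plants sprayed with compound (DMF/alkylaryl polyglycol ether concentrate diluted in water) at the stated rate, inoculated with S. fuliginea spores 1 day later, then kept in greenhouse at 23 °C, 70% RH. Efficacy scored 7 days post-inoculation; 0% equals untreated control, 100% means no infection.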

Data set [3] relates to DON/AcDON production. Description: microbe, parasite or virus in culture. The data set is classed as cell-based, Fusarium graminearum. The note with it: 7 days at 28° C.
Data set [4] concerns Cochliobolus miyabeanus. Description: Cochliobolus test (rice)/protective. The data set is classed as in vivo. The following applies: 250 ppm active compound, protective, evaluation 4 days after inoculation.
The test system of data set [5] is Venturia inaequalis. Description: Venturia test (apple)/protective. The note with it: 100 ppm active compound, protective, evaluation 10 days after inoculation. The data set is classed as in vivo. The essentials:
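Young apple plants sprayed protectively with compound (in acetone/dimethylacetamide with alkylaryl polyglycol ether, diluted in water) at the stated rate, then inoculated with V. inaequalis conidia once dry. Held 1 day at ~20° C, 100% humidity, then greenhouse ~21° C, ~90% humidity; efficacy scored 10 days post-inoculation (0% = control, 100% = no infection).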

Data set [6] relates to Rhizoctonia solani. The data set is described as follows: Rhizoctonia test (rice)/protective. The data set is classed as in vivo. The note with it: 250 ppm active compound, protective, evaluation 4 days after inoculation. How it is done:
Solvent: 28.5 parts by weight of acetone
Emulsifier: 1.5 parts by weight of alkylaryl polyglycol ether
To produce a suitable preparation of active compound, 1 part by weight of active compound is mixed with the stated amount of solvent, and the concentrate is diluted with water and the stated amount of emulsifier to the desired concentration.
To test for protective activity, young rice plants are sprayed with the active compound preparation at the stated application rate. 1 day after the treatment, the plants are inoculated with hyphae of Rhizoctonia solani. The plants are then placed in a greenhouse at 100% relative atmospheric humidity and 25° C.
Evaluation is carried out 4 days after the inoculation. 0% means an efficacy which corresponds to that of the control, whereas an efficacy of 100% means that no infection is observed.

Data set [7] concerns Botrytis cinerea. The data set is described as follows: Botrytis test (bean)/protective. The data set is classed as in vivo. The following applies: 100 ppm active compound, protective, evaluation 2 days after inoculation. The essentials: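 Young bean plants sprayed at the stated rate with compound in acetone/dimethylacetamide plus alkylaryl polyglycol ether emulsifier, diluted in water. Once dry, each leaf got 2 agar pieces colonized by Botrytis cinerea; kept dark at about 20° C., 100% humidity. Infected area scored after 2 days; 0% = control, 100% = no infection.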

Data set [8] has as its system Alternaria solani. The data set is described as follows: Alternaria test (tomato)/protective. The data set is classed as in vivo. The method in brief:
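Young tomato plants were sprayed with compound (DMF/emulsifier formulation diluted in water) and inoculated with A. solani spores 1 day later. Plants were kept 24 h at 100% RH and 22 °C, then at 96% RH and 20 °C. Efficacy was scored 7 days post-inoculation, where 0% equals untreated control and 100% means no infection.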

Data set [9] deals with Fusarium graminearum. The data set is classed as in vivo.
Data set [10] relates to Fusarium graminearum. The data set is described as follows: microbe, parasite or virus in culture. The data set is classed as cell-based.
In data set [11] the test system is Uromyces appendiculatus. The data set is described as follows: Uromyces test (bean)/protective. The data set is classed as in vivo. The essentials: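 Young bean plants sprayed with compound formulated in acetone/dimethylacetamide with emulsifier, inoculated with Uromyces appendiculatus spores after drying, held 1 day at ~20 °C and 100% humidity, then greenhouse ~21 °C, ~90% humidity. Efficacy scored 10 days post-inoculation, 0% = untreated control, 100% = no infection.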

The subject of data set [12] is Puccinia triticina. The data set is described as follows: Puccinia triticina test (wheat)/protective. The data set is classed as in vivo. How it is done: Solvent: 49 parts by weight of […]
(§1) Emulsifier: 1 part by weight of alkylaryl polyglycol ether
To produce a suitable preparation of active compound, 1 part by weight of active compound is mixed with the stated amounts of solvent and emulsifier, and the concentrate is diluted with water to the desired concentration.
To test for protective activity, young plants are sprayed with the active compound preparation at the stated application rate.
After the spray coating has dried on, the plants are sprayed with spores of a spore suspension of Puccinia triticina. The plants remain in an incubation cabin at 20° C. and 100% relative atmospheric humidity for 48 hours.
The plants are placed in greenhouse at a temperature of about 20° C. and a relative atmospheric humidity of about 80%.
Evaluation is carried out 8 days after the inoculation. 0% means an efficacy which corresponds to that of the control, whereas an efficacy of 100% means that no infection is observed.

Data set [13] relates to Pyrenophora teres. Description: Pyrenophora teres test (barley)/protective. The data set is classed as in vivo. The method in brief: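 Protective test: young barley plants sprayed at the stated rate with compound in DMF/alkylaryl polyglycol ether diluted with water, inoculated with P. teres spores 1 day later, kept 48 h at 100% rel. humidity and 22° C., then greenhouse at 80% and 20° C. Efficacy scored 7-9 days post-inoculation (0% = control, 100% = no infection).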

The test system of data set [14] is Phytophthora infestans. The data set is classed as in vivo.
Data set [15] deals with Leptosphaeria nodorum. Description: Leptosphaeria nodorum test (wheat)/protective. The data set is classed as in vivo. The method in brief: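 Young wheat plants were sprayed protectively, then inoculated 1 day later with L. nodorum spores and held 48 h at 100% humidity and 22° C. They were then kept in a greenhouse at 90% humidity and 22° C. Efficacy was scored 7-9 days post-inoculation, where 0% equals control and 100% means no infection.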

In data set [16] the test system is Fusarium nivale (var. majus). Description: Fusarium nivale (var. majus) test (wheat)/protective. The data set is classed as in vivo. The note with it: 1000 ppm active compound, protective, evaluation 5 days after inoculation. The essentials: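 Protective spray of young wheat plants at the stated rate (compound in dimethylacetamide with emulsifier, diluted in water), then inoculation with Fusarium nivale spores once dry. Plants kept at 10 °C and 100% humidity; scored 5 days after inoculation as % efficacy, where 0% equals untreated control and 100% means no infection.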

Data set [17] concerns Septoria tritici. Description: Septoria tritici test (wheat)/protective. The data set is classed as in vivo. As for the experimental part: Solvent: 49 parts by weight of N,N-dimethylacetamide
as §1
To produce a suitable preparation of active compound, 1 part by weight of active compound is mixed with the stated amount of solvent and emulsifier, and the concentrate is diluted with water to the desired concentration.
To test for protective activity, young plants are sprayed with the active compound preparation at the stated application rate. After the spray coating has dried on, the plants are sprayed with a spore suspension of Septoria tritici. The plants remain in an incubation cabin at 20° C. and 100% relative atmospheric humidity for 48 hours. The plants are then placed under a translucent hood at 15° C. and 100% relative atmospheric humidity for a further 60 hours.
The plants are placed in a greenhouse at a temperature of about 15° C. and a relative atmospheric humidity of 80%.
Evaluation is carried out 21 days after the inoculation. 0% means an efficacy which corresponds to that of the control, whereas an efficacy of 100% means that no infection is observed.

The nature of data set [18]: log P determination by HPLC retention times (alkan-2-one calibration).
Where [19] appears, read: 500 ppm active compound, tomato, protective, evaluation 7 days after inoculation.

Like-named read-outs stand apart in the source and are kept apart here.

As to `O=C(Nc1cc(-c2c(-c3ccc(F)cc3)nn3c2CCCC3)ccn1)C1CC1` [Example 20], the efficacy in % in data set [1] was determined as 92%; in data set [2] (in vivo) it was 100%; in data set [4], 96%; in [5] it was 99%; in [6], 100%; in [7], 98%. Moreover, the efficacy in % in data set [8] (in vivo) is reported as 100%; in [9] (in vivo), 94%; in [11] (in vivo), 94%; in data set [12] (in vivo), 100%; in [13] (in vivo), 100%; in [14] (in vivo) it was 100%. Further, the efficacy in % in [15] (in vivo) is recorded as 95%; in [16], 100%. For the same compound, in data set [3], the “% inhibition of DON/AcDON at 50 μM” value is 100%. Moreover, the “% inhibition of the fungal growth of Fusarium graminearum at 50 μM” value (shortened to “% inhibition of the fungal growth … at 50 μM”) in [10] came to 95%.

As for `O=C(Nc1cc(-c2c(-c3ccccc3)nn3c2CCCC3)ccn1)C1CC1` [Example 21], the efficacy in % in data set [1] is 98%; in data set [2] (in vivo), 100%; in [4], 96%; in data set [5], 99%; in data set [6], 100%; in [7] it was 98%. Moreover, the efficacy in % in [8] (in vivo) turned out to be 100%; in data set [9] (in vivo), 100%; in data set [11] (in vivo), 94%; in [12] (in vivo) it was 95%; in data set [13] (in vivo), 100%; in data set [17] (in vivo) it was 100%. Moreover, the efficacy in % worked out at 90% in data set [14] (in vivo), 95% in data set [15] (in vivo) and 100% in [16]. The “% inhibition of DON/AcDON at 50 μM” value in data set [3] was 100%. Moreover, the “% inhibition of the fungal growth … at 50 μM” value in [10] is reported as 97%.

As to `O=C(Nc1cc(-c2c(-c3ccsc3)nn3c2CCCC3)ccn1)C1CC1` [Example 65], the efficacy in % in data set [2] (in vivo) came out at 100%; in data set [5], 96%; in data set [7], 97%; in data set [8] (in vivo), 100%; in data set [9] (in vivo) it was 83%; in [11] (in vivo), 95%. For the same compound, the efficacy in % is recorded as 86% in [12] (in vivo); 95% in [13] (in vivo); 90% in [17] (in vivo); 90% in data set [14] (in vivo); 94% in data set [15] (in vivo); 100% in data set [16]. In addition, the “% inhibition of DON/AcDON at 50 μM” value in data set [3] was determined as 100%. The “% inhibition of the fungal growth … at 50 μM” value in data set [10] worked out at 100%.

Regarding `COC(=O)Nc1cc(-c2c(-c3ccc(F)cc3)nn3c2CCCC3)ccn1` [Example 26, Methyl{4-[2-(4-fluorophenyl)-4,5,6,7-tetrahydropyrazolo[1,5-a]pyridin-3-yl]-pyridin-2-yl}carbamate], the efficacy in % was found to be 98% in data set [2] (500 ppm active compound, cucumber, protective, evaluation 7 days after inoculation); 93% in [5]; 93% in [7]; 100% in [8] (setting [19]); 88% in [9] (1000 ppm active compound, barley, protective, evaluation 5 days after inoculation); 94% in data set [11] (100 ppm active compound, bean, protective, evaluation 10 days after inoculation). Besides, the efficacy in % came out at 100% in data set [12] (1000 ppm active compound, wheat, protective, evaluation 8 days after inoculation); 95% in [13] (500 ppm active compound, barley, protective, evaluation 7-9 days after inoculation); 86% in data set [17] (1000 ppm active compound, wheat, protective, evaluation 21 days after inoculation); 95% in data set [14] (setting [19]); 80% in [15] (500 ppm active compound, wheat, protective, evaluation 7-9 days after inoculation); 86% in data set [16]. In addition, the inhibition at 50 µM in data set [3] (Fusarium graminearum, 168 h) came out at 98%; in [10] (Fusarium graminearum, 72 h, read-out: % inhibition of the fungal growth of Fusarium graminearum at 50 μM), 57%. Besides, the chromatographic logP in [18] (log P(HCOOH), HCOOH, preparation examples in the text) came out at 2.11; in [18] (log P, values marked [a] in Table 1) it was 2.11; in data set [18] (log P, values marked [b] in Table 1), 2.56.

For the compound `CC(C)C(=O)Nc1cc(-c2c(-c3ccsc3)nn3c2CCCC3)ccn1` [Example 63], the efficacy in % is listed as 93% in [2] (in vivo); 99% in data set [5]; 94% in data set [7]; 100% in data set [8] (in vivo); 83% in data set [9] (in vivo); 75% in data set [11] (in vivo). The efficacy in % in data set [12] (in vivo) came out at 86%; in data set [13] (in vivo) it was 95%; in data set [17] (in vivo) it was 100%; in [14] (in vivo), 95%; in data set [15] (in vivo), 94%; in data set [16] it was 83%. Also, the “% inhibition of DON/AcDON at 50 μM” value in [3] is on record as 100%. Further, in data set [10], the “% inhibition of the fungal growth … at 50 μM” value was determined as 100%.

`CC(=O)Nc1cc(-c2c(-c3ccc(F)cc3)nn3c2CCCC3)ccn1` [Example 15]: the efficacy in % stood at 98% in data set [2] (in vivo); 94% in data set [5]; 82% in [7]; 100% in data set [8] (in vivo); 100% in data set [9] (in vivo); 94% in data set [11] (in vivo). For the same compound, the efficacy in % in data set [12] (in vivo) was determined as 94%; in data set [13] (in vivo), 100%; in [17] (in vivo) it was 100%; in data set [14] (in vivo) it was 95%; in data set [15] (in vivo) it was 95%; in data set [16], 100%. Moreover, in [3], the “% inhibition of DON/AcDON at 50 μM” value worked out at 99%. Further, the “% inhibition of the fungal growth … at 50 μM” value in [10] was determined as 88%.
